# Measured values published in patent US6030940A, “Peptide analog inhibitors of urokinase receptor activity” (Chiron Corporation, priority 1997, dated 2000).
# Where “and” joins values, the source holds several entries; their conditions need not be identical. Equal entries are not always repeated. Where two headings read alike, the source gives them in different places. Square brackets hold non-standard residues; d marks the D form. Ends that are not written are not given here. Peptide text beside a SMILES is read from it. 1Nal = N[C@@H](Cc1cccc2ccccc12)C(=O)O
# Key:
# soluble uPAR = target: T1, soluble uPAR (Homo sapiens, UniProt Q03405); assay: 125I-ATF competition binding to immobilized soluble uPAR (Activity Assay); details: competition with iodinated human uPA ATF tracer (100-500 pM), 2h at room temperature, PBS/0.1% BSA, triplicate
# T1 construct: Purified soluble uPAR was biotinylated
# T1 sequence (Q03405 23-305 limits assumed): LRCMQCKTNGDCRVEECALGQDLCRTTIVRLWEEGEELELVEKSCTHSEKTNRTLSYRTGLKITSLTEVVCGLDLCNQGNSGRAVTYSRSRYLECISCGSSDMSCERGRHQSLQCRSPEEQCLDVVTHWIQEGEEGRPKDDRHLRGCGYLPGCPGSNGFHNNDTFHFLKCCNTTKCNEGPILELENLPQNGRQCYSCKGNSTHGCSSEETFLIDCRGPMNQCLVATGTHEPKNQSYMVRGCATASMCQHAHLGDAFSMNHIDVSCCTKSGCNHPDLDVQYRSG
# Source text: Purified soluble uPAR was biotinylated with NHS-biotin (Molecular Probes) and immobilized at 0.3 Tg/mL in phosphate-buffered saline (PBS)/0.1% BSA on streptavidin-coated Immulon-2 96-well Removawell plates. Human uPA N-terminal fragment (ATF; from M. Shuman, University of California, San Francisco) was iodinated by the Iodo-Gen method (Pierce). Unincorporated ^125 I was separated from labeled protein by Sephadex G-25 chromatography. The specific activity of the labeled protein was between 5×10^5 and 1×10^6 […]. The iodinated tracer (100-500 pM) was incubated with the peptides prepared in Example 1 triplicate for 2h at room temperature in PBS/0.1% BSA in a total volume of 200 TL. The plates were washed with PBS/0.1% BSA 3X, and remaining bound radioactivity was measured on an LKB 1277 Gammamaster. Scatchard analysis was performed by using the LIGAND program (Biosoft, Milltown, N.J.).
# uPAR = uPAR (Homo sapiens, UniProt Q03405); details: E. Appella et al., J Biol Chem (1987), cited from earlier work
# Chain of uPAR (Q03405 23-335): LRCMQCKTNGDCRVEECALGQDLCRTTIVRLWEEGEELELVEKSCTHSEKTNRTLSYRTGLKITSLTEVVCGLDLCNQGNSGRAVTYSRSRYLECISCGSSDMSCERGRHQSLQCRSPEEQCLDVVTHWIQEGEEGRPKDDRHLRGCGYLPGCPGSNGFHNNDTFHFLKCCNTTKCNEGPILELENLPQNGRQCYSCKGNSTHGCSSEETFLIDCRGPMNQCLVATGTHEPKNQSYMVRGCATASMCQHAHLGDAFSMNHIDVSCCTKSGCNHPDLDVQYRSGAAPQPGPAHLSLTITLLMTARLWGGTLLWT
# [1] = U937 fibroblast cells; S. A. Rabbani et al.; cited from earlier work
# [2] = system: SaOS-2 osteosarcoma cell line; details: S. A. Rabbani et al.; cited from earlier work
IC50 (soluble uPAR; read-out: IC50),Compound,also measured
225 ± 40 nM,"CC(C)C[C@H](NC(=O)[C@H](Cc1ccc(O)cc1)NC(=O)[C@H](CS)NC(=O)[C@@H](CO)NC(=O)[C@H](Cc1ccccc1)NC(=O)[C@H](CC(N)=O)NC(=O)[C@@H](N)CC(C)C)C(=O)N[C@@H](Cc1c[nH]c2ccccc12)C(=O)N[C@@H](CS)C(=O)N[C@H](C(=O)O)[C@@H](C)O [SEQ ID NO: 11, LNFdSCYLWCT] (H-LNF[dS]CYLWCT-OH)",
41 ± 17 nM,"CC(C)C[C@H](NC(=O)[C@H](Cc1ccc(O)cc1)NC(=O)[C@H](CCC(N)=O)NC(=O)CNC(=O)[C@H](Cc1ccccc1)NC(=O)[C@H](CC(N)=O)NC(=O)[C@@H](N)CC(C)C)C(=O)N[C@@H](Cc1c[nH]c2ccccc12)C(=O)N[C@@H](Cc1ccc(O)cc1)C(=O)N[C@H](C(=O)O)[C@@H](C)O [SEQ ID NO: 1, LNFGQYLWYT] (H-LNFGQYLWYT-OH)",
,"uPA12-32: The critical domain alone, residues 12-32 of the uPA EGF-like domain (DCLNGGTCVSNKYFSNIHWCN; UniProt P00749 32-52, looked up, fragment)",affinity relative to intact ATF (fold less) (uPAR): about 100 fold; Kd (uPAR; read-out: affinity for uPAR): 40 nM
79 ± 10 nM,"CC(C)C[C@H](NC(=O)[C@H](Cc1ccc(O)cc1)NC(=O)[C@H](CS)NC(=O)[C@@H](CO)NC(=O)[C@H](Cc1ccccc1)NC(=O)[C@H](CS)NC(=O)[C@@H](N)CC(C)C)C(=O)N[C@@H](Cc1cccc2ccccc12)C(=O)N[C@@H](Cc1ccc(O)cc1)C(=O)N[C@H](C(=O)O)[C@@H](C)O [SEQ ID NO: 10, LCFdSCYLnAYT] (H-LCF[dS]CYL[1Nal]YT-OH)",
,"fucosylated EGF-like domain: fucosylated EGF-like domain (uPA4-43, produced by cleavage from pro-uPA) (LHQVPSNCDCLNGGT(Fuc)CVSNKYFSNIHWCNCPKKFGGQHCE; cysteine pairing not given here; UniProt P00749 24-63, looked up, fragment)",mitogenic activity [1]: Neither fucosylated nor non-fucosylated EGF-like domain was mitogenic; mitogenic activity [2]: mitogenic
7 nM and 11 nM,"CC(C)C[C@H](NC(=O)[C@H](Cc1ccc(O)cc1)NC(=O)[C@H](CCC(N)=O)NC(=O)[C@@H](CO)NC(=O)[C@H](Cc1ccccc1)NC(=O)[C@H](CC(N)=O)NC(=O)[C@@H](N)CC(C)C)C(=O)N[C@@H](Cc1c[nH]c2ccccc12)C(=O)N[C@@H](Cc1ccc(O)cc1)C(=O)N[C@H](C(=O)O)[C@@H](C)O [SEQ ID NO: 5, LNFdSQYLWYT] (H-LNF[dS]QYLWYT-OH)",
33 ± 3 nM,"CC(C)C[C@H](NC(=O)[C@H](Cc1ccc(O)cc1)NC(=O)[C@H](CCC(N)=O)NC(=O)[C@@H](CO)NC(=O)[C@H](Cc1ccccc1)NC(=O)[C@H](CC(N)=O)NC(=O)[C@@H](N)CC(C)C)C(=O)N[C@@H](Cc1cccc2ccccc12)C(=O)N[C@@H](Cc1ccc(O)cc1)C(=O)N[C@H](C(=O)O)[C@@H](C)O [SEQ ID NO: 7, LNFdSQYLnAYT] (H-LNF[dS]QYL[1Nal]YT-OH)",
,"CC(C)C[C@H](NC(=O)[C@H](Cc1ccc(O)cc1)NC(=O)[C@H](CCC(N)=O)NC(=O)CNC(=O)[C@H](Cc1ccccc1)NC(=O)[C@H](CC(N)=O)NC(=O)[C@@H](N)CC(C)C)C(=O)N[C@@H](Cc1cccc2ccccc12)C(=O)N[C@@H](Cc1ccc(O)cc1)C(=O)N[C@H](C(=O)O)[C@@H](C)O [SEQ ID NO: 4, LNFGQYLnAYT] (H-LNFGQYL[1Nal]YT-OH)",IC50 (soluble uPAR; IC50 (nM)): 7 nM and 6 nM
9 nM and 23 nM,"CC(C)C[C@H](NC(=O)[C@H](Cc1ccc(O)cc1)NC(=O)[C@H](CS)NC(=O)[C@@H](CO)NC(=O)[C@H](Cc1ccccc1)NC(=O)[C@H](CS)NC(=O)[C@@H](N)CC(C)C)C(=O)N[C@@H](Cc1c[nH]c2ccccc12)C(=O)N[C@@H](Cc1ccc(O)cc1)C(=O)N[C@H](C(=O)O)[C@@H](C)O [SEQ ID NO: 9, LCFdSCYLWYT] (H-LCF[dS]CYLWYT-OH)",
8 nM and 14 nM,"CC(C)C[C@H](NC(=O)[C@H](Cc1ccc(O)cc1)NC(=O)[C@@H](CS)NC(=O)CNC(=O)[C@H](Cc1ccccc1)NC(=O)[C@H](CC(N)=O)NC(=O)[C@@H](N)CC(C)C)C(=O)N[C@@H](Cc1c[nH]c2ccccc12)C(=O)N[C@@H](CS)C(=O)N[C@H](C(=O)O)[C@@H](C)O [SEQ ID NO: 8, LNFGdCYLWCT] (H-LNFG[dC]YLWCT-OH)",
